How the values were obtained:
[1] = Stability of the prodrugs in plasma samples; type: in vitro ADME, rat; details: half-life (50% conversion of the prodrug), 10 μM, 37° C.
Experimental: Stability of the Prodrugs in Blood and Plasma Samples
Plasma and blood samples from different species were merged with equimolar amounts (10 μM) of prodrug and parent drug in DMSO and incubated for different time intervals (up to 60 min.) at 37° C. The reaction was stopped by protein precipitation with acetonitrile followed by centrifugation (20 min., 1800 g at 10° C.). The supernatant was immediately subjected to analysis.
The concentration of formed parent compound was determined by LC-MS. The chromatographic system was comprised of a trapping column (X-Terra™ MS C8 3.5 μm, 10×2.1 mm i.d., Waters) and an analytical column (Symmetry C8 3.5 μm, 50×2.1 mm i.d., Waters) connected to a SCIEX API 2000 triplequadrupole mass spectrometer equipped with a turbo ion spray interface. The mobile phases were 1% aqueous formic acid and acetonitrile. The parent compound together with its deuterium labelled internal standard was enriched on the trapping column and eluted with a fast gradient. The retention time of (R)-1-[6-[(R)-2-carboxy-pyrrolidin-1-yl]-6-oxo-hexanoyl]-pyrrolidine-2-carboxylic acid was ˜2.1 min. The effluent (300 μl min^−1) was passed to the turbo ion spray interface without splitting and was nebulized using nitrogen. Multiple reaction monitoring (MRM) in positive mode Was used for mass spectrometric detection. The transitions for the parent were 341.1 [M+H]^+ to 226.1 [Fragment]^+ and for the internal standard 349.1 [M+H]^+ to 234.1 [Fragment]^+. The results were expressed as half-lifes (50% conversion of the prodrug), using the data of the prodrug at time-point 0 min. as […].

[2] = Rat liver microsome incubation; type: in vitro ADME; details: for Rat microsomes Clearance: intrinsic clearance, rat liver microsomes 1.0 mg prot/mL, prodrug 10 μM, 37° C.; for Rat microsomes MAB %: maximal achievable bioavailability (1−E), extrapolated from rat microsomal clearance
Experimental: (§1) Test Description for Microsome Incubation
(§2) Rat and human liver microsome incubations were conducted on-line in a CTC PAL autosampler in order to avoid any degradation of the prodrugs during the work-up. Incubation mixtures consisted of liver microsomes (rat 1.0 mg prot/mL or human 2.0 mg prot/mL), prodrug 10 μM, MgCl2 (3.3 mM), and an NADPH regenerating system consisting of glucose-6-phosphate dehydrogenase, NADPH and glucose-6-phosphate equivalent to 1 mM NADPH) in a total volume of 1.0 mL of potassium phosphate buffer 100 mM pH 7.4.
(§3) Reactions were initiated by addition of the NADPH regenerating system at 37° C. At time 1, 5, 9, 13, 17, 21, 25, and 29 min a 5 μL aliquot was directly analysed on a HPLC-MS/MS system comprising of a HP 1100 quaternary pump with degasser and a PE-Sciex API-2000 MS/MS spectrometer. The analytical column was a Waters Symmetry Shield RP8 (2.1*50 mm with a […] particle size). A polarity non linear gradient from phase A (MeOH/Ac. Form.1% 20/80) to phase B (MeOH) was applied for a total run time of 2 minutes at a flow rate of 0.25 mL/min. The PE-Sciex API-2000 MS/MS spectrometer was used for detection of both the prodrugs and the parent compound (R)-1-[6-[(R)-2-carboxy-pyrrolidin-1-yl]-6-oxo-hexanoyl]-pyrrolidine-2-carboxylic acid. In vivo metabolic clearance was predicted according to published procedures (Houston, J. B., Biochem. Pharmacol., 47:1469-1479, 1994). In brief, the intrinsic clearance (Clearance, Table 1) was calculated from the measured in vitro half-life taking into account incubation volume and microsomal protein used for the in vitro incubation. The intrinsic clearance was expressed in terms of ul/min/mg microsomal protein. For in vivo extrapolations, the hepatic extraction ratio (E) was calculated. Reported below is the %MAB value (maximal achievable bioavailability), which is equal to 1−E.

[3] = Human liver microsome incubation; type: in vitro ADME; details: for Human microsomes Clearance: intrinsic clearance, human liver microsomes 2.0 mg prot/mL, prodrug 10 μM, 37° C.; for Human microsomes MAB %: maximal achievable bioavailability (1−E), extrapolated from human microsomal clearance
Experimental: as §1, §2, §3

Compound | Rat plasma tl/2 hours [1] | Rat microsomes Clearance [2] | Rat microsomes MAB % [2] [%] | Human microsomes Clearance [3] | Human microsomes MAB % [3] [%]
CCN(CC)C(=O)COC(=O)[C@H]1CCCN1C(=O)CCCCC(=O)N1CCC[C@@H]1C(=O)OCC(=O)N(CC)CC [Example 7, (R)-1-{6-[(R)-2-(Diethylcarbamoyl-methoxycarbonyl)-pyrrolidin-1-yl]-6-oxo-hexanoyl}-pyrrolidine-2-carboxylic acid diethylcarbamoyl-methyl ester] | 0.2 h | 9 ul/min/mg microsomal protein | 73 | 2 ul/min/mg microsomal protein | 90
O=C(COC(=O)[C@H]1CCCN1C(=O)CCCCC(=O)N1CCC[C@@H]1C(=O)OCC(=O)NC1CC1)NC1CC1 [Example 5, (R)-1-{6-[(R)-2-(Cyclopropylcarbamoyl-methoxycarbonyl)-pyrrolidin-1-yl]-6-oxo-hexanoyl}-pyrrolidine-2-carboxylic acid cyclopropylcarbamoyl-methyl ester] | low | 36 ul/min/mg microsomal protein | 50 | 8 ul/min/mg microsomal protein | 67
CC(C)NC(=O)COC(=O)[C@H]1CCCN1C(=O)CCCCC(=O)N1CCC[C@@H]1C(=O)OCC(=O)NC(C)C [Example 3, (R)-1-{6-[(R)-2-(Isopropylcarbamoyl-methoxycarbonyl)-pyrrolidin-1-yl]-6-oxo-hexanoyl}-pyrrolidine-2-carboxylic acid isopropylcarbamoyl-methyl ester] | low | 82 ul/min/mg microsomal protein | 30 | 16 ul/min/mg microsomal protein | 50
C=CCNC(=O)COC(=O)[C@H]1CCCN1C(=O)CCCCC(=O)N1CCC[C@@H]1C(=O)OCC(=O)NCC=C [Example 2, (R)-1-[6-[(R)-2-Allylcarbamoylmethoxycarbonyl-pyrrolidin-1-yl]-6-oxo-hexanoyl]-pyrrolidine-2-carboxylic acid allylcarbamoylmethyl ester] | low | 18 ul/min/mg microsomal protein | 66 | 64 ul/min/mg microsomal protein | 20
CC(C)(C)NC(=O)COC(=O)[C@H]1CCCN1C(=O)CCCCC(=O)N1CCC[C@@H]1C(=O)OCC(=O)NC(C)(C)C [Example 4, (R)-1-{6-[(R)-2-(tert-Butylcarbamoyl-methoxycarbonyl)-pyrrolidin-1-yl]-6-oxo-hexanoyl}-pyrrolidine-2-carboxylic acid tert-butylcarbamoyl-methyl ester] | low | 625 ul/min/mg microsomal protein | 5 | 57 ul/min/mg microsomal protein | 22

The next lines start with the values.

Rat plasma tl/2 hours [1] | Rat microsomes Clearance [2] | Rat microsomes MAB % [2] [%] | Human microsomes Clearance [3] | Human microsomes MAB % [3] [%] | Compound
0.4 h | 5 ul/min/mg microsomal protein | 88 | 1 ul/min/mg microsomal protein | 93 | NC(=O)COC(=O)[C@H]1CCCN1C(=O)CCCCC(=O)N1CCC[C@@H]1C(=O)OCC(N)=O [Example 1, (R)-1-[6-[(R)-2-Carbamoylmethoxycarbonyl-pyrrolidin-1-yl]-6-oxo-hexanoyl]-pyrrolidine-2-carboxylic acid carbamoylmethyl ester]
0.4 h | 46 ul/min/mg microsomal protein | 44 | 5 ul/min/mg microsomal protein | 77 | CCOC(=O)[C@H]1CCCN1C(=O)CCCCC(=O)N1CCC[C@@H]1C(=O)OCC [Example 11, (R)-1-{6-[(R)-2-Ethoxycarbonyl-pyrrolidin-1-yl]-6-oxo-hexanoyl}-pyrrolidine-2-carboxylic acid ethyl ester]
1.3 h | 9 ul/min/mg microsomal protein | 79 | 2 ul/min/mg microsomal protein | 90 | COC(=O)[C@H]1CCCN1C(=O)CCCCC(=O)N1CCC[C@@H]1C(=O)OC [Example 10, (R)-1-{6-[(R)-2-Methoxycarbonyl-pyrrolidin-1-yl]-6-oxo-hexanoyl}-pyrrolidine-2-carboxylic acid methyl ester]
0.8 h | 7 ul/min/mg microsomal protein | 84 | 1 ul/min/mg microsomal protein | 96 | CN(C)C(=O)COC(=O)[C@H]1CCCN1C(=O)CCCCC(=O)N1CCC[C@@H]1C(=O)OCC(=O)N(C)C [Example 6, (R)-1-{6-[(R)-2-(Dimethylcarbamoyl-methoxycarbonyl)-pyrrolidin-1-yl]-6-oxo-hexanoyl}-pyrrolidine-2-carboxylic acid dimethylcarbamoyl-methyl ester]
 | 253 ul/min/mg microsomal protein | 12 | 73 ul/min/mg microsomal protein | 18 | CCCOC(=O)[C@H]1CCCN1C(=O)CCCCC(=O)N1CCC[C@@H]1C(=O)OCCC [Example 12, (R)-1-{6-Oxo-6-[(R)-2-propoxycarbonyl-pyrrolidin-1-yl]-hexanoyl}-pyrrolidine-2-carboxylic acid propyl ester]

Source: patent US6903129B2, “D-proline prodrugs” (Hoffman-La Roche Inc., priority 2001, dated 2005)
